In US8609147B2, “Use of deuterium oxide for treatment of herpes virus-based diseases of the skin” (D2 Bioscience Group Ltd., priority 2007, dated 2013):

System: HSV-1
Assay: Efficacy in a cell culture test: HSV-1 infected human keratinocyte primary cultures, virus count by transmission electron microscopy
Format: cell-based
Settings: cell culture medium containing 35 wt % D2O; 3 days after infection with HSV-1; 20 keratinocyte cells evaluated
Protocol: After a closed monolayer had formed in the cell culture dish and after desmosomes had developed, human keratinocyte primary cultures produced according to H. M. Reinl et al. (J. Invest. Dermatol. 1995; 105(2):291-5) were incubated with cell culture medium additionally containing 35 wt % D2O (sample) and/or H2O (controls). On the day of incubation, the sample and controls were infected with HSV-1. The infection was accomplished by adding the virus to the cell culture medium (10^7 viruses per cell culture dish in 1 mL cell culture medium). After 3 days (after infection), the sample and control groups were tested for the average number of viral particles per cell. The virus count was performed using a transmission electron microscope according to standard fixation and staining methods (glutaraldehyde and osmium tetroxide). In each case, 20 randomly selected keratinocyte cells from the sample group and the control group were evaluated with regard to the viral particles contained in them.

## [2H]O[2H] [D2O, deuterium oxide]
  average virus count (viral particles per cell): 10±4
